# Laboratory results published in ChEMBL document CHEMBL3132807, “Chemical motifs that redox cycle and their associated toxicity” (Medchemcomm, 2013).
# pEC50: −log10 of the molar value.
# Experiments:
# THLE = assay: Cytotoxicity against human THLE cells assessed as ATP depletion by CellTitre-Glo assay; format: functional, cell-based; conditions: TDE = time-dependent effect
# [1] = Cytotoxicity against human THLE cells assessed as ATP depletion after 72 hrs by CellTitre-Glo assay; format: functional, cell-based
# [2] = Cytotoxicity against human THLE cells assessed as ATP depletion after 4 hrs by CellTitre-Glo assay; format: functional, cell-based
# [3] = Cytotoxicity against human THLE cells assessed as ATP depletion after 24 hrs by CellTitre-Glo assay; format: functional, cell-based
# [4] = Induction of ROS generation assessed as generation of H2O2 measured as oxidation of phenol red after 60 mins by phenol red assay; format: physicochemical
SMILES,Activity (THLE),pEC50 [1],pEC50 [2],pEC50 [3],EC50 at 60 min [4] [µM]
O=c1[nH]c(=O)c2nc3ccccc3nc2[nH]1 [ALLOXAZINE],tde,< 3.52,< 3.52,< 3.52,
C[n+]1ccc(-c2cc[n+](C)cc2)cc1 [PARAQUAT],tde,< 3.52,< 3.52,< 3.52,> 1000
Cn1nc(/C=C/c2ccccc2)nc2c(=O)n(C)c(=O)nc1-2,tde,5.77,5.89,5.92,1
O=C1NC(=O)/C(=C\c2ccncc2)C2=C1CCCC2,,,,,95
O=C1NC(=O)/C(=C\c2ccc(C(=O)O)cc2)C2=C1CCCC2,,,,,53
CC1=CC(=O)c2ccccc2C1=O [MENADIONE],tde,4.75,4.03,4.56,29
COc1cc(/C=C2\C(=O)NC(=O)C3=C2CCCC3)cc(OC)c1OC,,,,,0.5
Cn1nc(/C=C\c2ccccc2)nc2c(=O)n(C)c(=O)nc1-2,tde,5.17,5.32,5.23,1
CC(=O)N/C=C1/C(=O)NC(=O)C(C#N)=C1C,,,,,250
Cn1nc(-c2ccccc2)nc2c(=O)n(C)c(=O)nc1-2,tde,5.13,5.05,5.35,2
O=C1NC(=O)/C(=C\c2ccc(Cl)cc2Cl)C2=C1CCCC2,,,,,236
Cn1ncnc2c(=O)n(C)c(=O)nc1-2,tde,5.49,5.57,5.68,1
Nc1ccc2nc3c(=O)[nH]c(=O)nc-3[nH]c2c1,tde,3.61,3.58,3.60,110
CCOc1ccc2nc3c(=O)n(C)c(=O)nc-3sc2c1,tde,4.17,4.34,4.10,70
O=C1NC(=O)/C(=C\c2ccccc2)C2=C1CCCC2 [TESIMIDE],tde,< 3.52,< 3.52,< 3.52,26
COc1cccc2c1C(=O)c1c(O)c3c(c(O)c1C2=O)C[C@@](O)(C(=O)CO)C[C@@H]3O[C@H]1C[C@H](N)[C@H](O)[C@H](C)O1 [DOXORUBICIN],tde,6.28,3.67,5.74,179
CCCc1nc2c(=O)n(C)c(=O)nc-2n(C)n1,tde,4.89,4.78,5.04,1
Cn1nc(-c2ccc([N+](=O)[O-])cc2)nc2c(=O)n(C)c(=O)nc1-2,tde,5.49,5.28,5.54,1
Cn1c(=O)nc2sc3ccccc3nc-2c1=O,tde,5.09,4.97,5.00,151
CC1=C(C)C(=O)c2ccccc2C1=O,tde,4.68,4.39,4.64,110
Cc1c2cc3c(ccc4ccccc43)oc-2nc(=O)c1C#N,tde,< 3.52,< 3.52,< 3.52,11
Cc1cc2nc3c(=O)[nH]c(=O)nc-3n(C[C@H](O)[C@H](O)[C@H](O)CO)c2cc1C [RIBOFLAVIN],tde,< 3.52,< 3.52,< 3.52,129

SMILES,Activity (THLE),pEC50 [1],pEC50 [2],pEC50 [3],EC50 at 60 min [4] [µM]
CCn1cc(C(=O)O)c(=O)c2cc(F)c(N3CCNCC3)cc21 [NORFLOXACIN],tde,< 3.52,< 3.52,< 3.52,> 1000
Cn1nc(-c2ccccc2)cc2c(=O)n(C)c(=O)nc1-2,tde,< 3.52,< 3.52,< 3.52,> 1000
O=C1NC(=O)/C(=C\c2ccc(Cl)cc2)C2=C1CCCC2,,,,,0.5
O=C1C=C(Cl)C(=O)c2ccccc21,tde,4.43,4.68,4.86,2.5
O=C1NC(=O)/C(=C\c2ccc(C3CCCCC3)cc2)C2=C1CCCC2,,,,,121
COc1ccc(-c2nc3c(=O)n(C)c(=O)nc-3n(C)n2)cc1,tde,5.14,5.02,5.22,2
Cc1cc(C)n(C)c2cccc(=O)c1-2,tde,< 3.52,< 3.52,< 3.52,33
O=c1[nH]c(=O)c2nccnc2[nH]1,tde,< 3.52,< 3.52,< 3.52,713
O=C1NC(=O)/C(=C\c2ccc(F)cc2)C2=C1CCCC2,,,,,60
O=c1nc2[nH]c3ccccc3nc-2c(=O)[nH]1 [ALLOXAZINE],,,,,226
Cn1nc(-c2cccs2)nc2c(=O)n(C)c(=O)nc1-2,tde,5.51,5.62,5.54,2
C[n+]1cc2c3c(ccc2c2ccc4cc5c(cc4c21)OCO5)OCO3 [SANGUINARIUM],tde,6.03,6.00,6.05,513
CCCCCc1ccc(/C=C2\C(=O)NC(=O)C3=C2CCCC3)cc1,,,,,9.2
O=C1NC(=O)/C(=C\c2ccccc2)C2=C1CCC2,tde,< 3.52,< 3.52,< 3.52,233
NC(=O)N1C(=O)/C(=C(\O)c2ccc(Cl)s2)c2cc(Cl)ccc21,tde,3.93,< 3.52,3.60,667
NC(=O)N1C(=O)/C(=C(\O)c2ccc(F)s2)c2cc(F)c(Cl)cc21,tde,3.97,< 3.52,3.76,833
Cn1nc(-c2ccncc2)nc2c(=O)n(C)c(=O)nc1-2,tde,5.51,4.93,5.24,1
Cn1nc(-c2cccnc2)nc2c(=O)n(C)c(=O)nc1-2,tde,5.70,5.28,5.68,1
O=C1NC(=O)/C(=C\c2ccc(O)cc2)C2=C1CCCC2,,,,,8.6
O=C1NC(=O)/C(=C\c2ccco2)C2=C1CCCC2,,,,,18
CCn1cc(C(=O)O)c(=O)c2ccc(C)nc21 [NALIDIXIC ACID],tde,< 3.52,< 3.52,< 3.52,> 1000
